In patent publication US20250255834A1, “ANXIOLYTIC COMPOSITION, FORMULATION AND METHOD OF USE” (priority 2012, published 2025):

Test system: anxiety
Assay: Intranasal ketamine spray given to individual adult subjects for anxiety before a procedure or flight (case reports)

Compound: CNC1(c2ccccc2Cl)CCCCC1=O (stereo not drawn) [ketamine]
- duration of relief from anxiety and calming effect (Example I: healthy person, intranasal, about 0.2-0.3 mg/kg): 15 to 30 min
- development of anxiety during the dental procedure (Example II: person with severe dental phobia, dental extraction under local anesthetic, intranasal unit dose before travel, additional dosage in the waiting room): without the development of anxiety
- duration of relief from anxiety and calming effect (Example II: person with severe dental phobia, intranasal unit dose as in Example I): 15 to 30 min
